The subject of one data set is HIV (HTLV-IIIB strain). The data set is described as follows: HIV replication inhibition assay (Test Example 1; MT-4 cells, MTT). To be noted: Human immunodeficiency virus 1, MT4, 96 h, HIV (HTLV-IIIB strain), MT-4 cells, MTT, four days; for EC50: read-out: EC50; for EC90: read-out: EC90. The format is cell-based. A digest of the protocol:
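MT-4 cells (2.5×10^4/well) were infected with HIV HTLV-IIIB (60 pfu) in the presence of compound and cultured 4 days at 37 °C. Cell viability was read by MTT reduction (OD 560/690 nm). EC50 and EC90 are the concentrations inhibiting virus-induced cytotoxicity by 50% and 90%.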

Data set [1] concerns T125A mutant virus (HIV-1 NL-432 recombinant molecular clone, IN gene). The experiment in a line: HIV replication inhibition assay against integrase 124/125 mutant virus (Test Example 2). The format is cell-based. To be noted: Human immunodeficiency virus 1, MT4, read-out: EC50 against T125A mutant virus, T125A mutant virus (HIV-1 NL-432 IN gene), MT-4 cells, MTT. A digest of the protocol: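 MT-4 cells (2.5×10^4 per well) infected with 60 pfu of 293T-derived HIV-1 NL-432 clone carrying integrase 124/125 point mutations, in presence of compound, cultured 4 days at 37 °C. Viability by MTT formazan at 560/690 nm; EC50 = concentration inhibiting 50% of virus-induced cytotoxicity.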

For a further data set, the target named is CYP3A4 (Homo sapiens (Human), UniProt P08684). The data set is described as follows: CYP3A4 (MDZ) MBI test (Test Example 6). To be noted: pooled human liver microsomes, midazolam 1-hydroxylation, preincubation 0 or 30 min. Background: Microsomes from liver hold many membrane-bound enzymes, among them those of drug oxidation.
Another data set deals with CYP2C9 (Homo sapiens (Human), UniProt P11712). The data set is described as follows: CYP inhibition assay, tolbutamide methyl-hydroxylation (Test Example 4). Format: in vitro ADME. To be noted: pooled human hepatic microsome, 100 μmol/L tolbutamide, 15 minutes, 37° C. A digest of the protocol: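 Pooled human liver microsomes (0.2 mg protein/mL) with 100 µmol/L tolbutamide in 50 mmol/L HEPES, test compound at 1, 5, 10, 20 µmol/L; NADPH-started, 15 min at 37 °C. Hydroxytolbutamide quantified by LC/MS/MS to assess inhibition of metabolite formation.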

The next data set has as its system HIV. The format is cell-based. To be noted: EC50 in the presence of human serum (25%) versus without human serum, MT-4 cells. The method, boiled down:
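Compound is preincubated 1 h at room temperature with human serum, or with medium alone as the serum-free control. MT-4 cells infected with HIV (1 h, 37° C) are added and cultured 4 days. EC50 is determined with and without serum; their ratio gives the potency shift.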

Data set [2] has as its system sheep red blood cells (RBC). The experiment in a line: Photohemolysis test (Test Example 13). Format: cell-based. To be noted: 0.0008 to 0.1 w/v %, 10 J/cm2 UV-irradiation (290-400 nm). The method, boiled down: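 Sheep RBC suspension (2.5 v/v %) with compound at 0.0008–0.1 w/v % exposed to 10 J/cm2 UV-A/UV-B (290–400 nm), then centrifuged. Supernatant absorbance at 540 nm gave photohemolysis index (PI) and at 630 nm met-Hb formation. Negative if PI<10% and 630 nm change <0.05; otherwise positive.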

Some results are limits rather than exact numbers.

CYP2C9, sequence (P11712 whole entry): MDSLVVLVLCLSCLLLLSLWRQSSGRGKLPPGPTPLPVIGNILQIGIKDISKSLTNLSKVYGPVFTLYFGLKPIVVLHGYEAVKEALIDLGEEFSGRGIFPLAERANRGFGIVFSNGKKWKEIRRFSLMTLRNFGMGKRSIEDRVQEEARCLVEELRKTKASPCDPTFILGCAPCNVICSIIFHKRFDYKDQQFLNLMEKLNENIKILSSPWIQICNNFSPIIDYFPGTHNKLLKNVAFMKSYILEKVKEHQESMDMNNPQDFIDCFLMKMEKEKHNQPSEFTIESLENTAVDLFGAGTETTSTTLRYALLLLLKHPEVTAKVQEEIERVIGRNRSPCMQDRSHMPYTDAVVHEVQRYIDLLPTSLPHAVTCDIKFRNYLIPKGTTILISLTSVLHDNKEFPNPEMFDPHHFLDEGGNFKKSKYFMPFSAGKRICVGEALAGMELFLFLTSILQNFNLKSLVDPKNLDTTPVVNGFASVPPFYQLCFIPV
CYP3A4, sequence (P08684 whole entry): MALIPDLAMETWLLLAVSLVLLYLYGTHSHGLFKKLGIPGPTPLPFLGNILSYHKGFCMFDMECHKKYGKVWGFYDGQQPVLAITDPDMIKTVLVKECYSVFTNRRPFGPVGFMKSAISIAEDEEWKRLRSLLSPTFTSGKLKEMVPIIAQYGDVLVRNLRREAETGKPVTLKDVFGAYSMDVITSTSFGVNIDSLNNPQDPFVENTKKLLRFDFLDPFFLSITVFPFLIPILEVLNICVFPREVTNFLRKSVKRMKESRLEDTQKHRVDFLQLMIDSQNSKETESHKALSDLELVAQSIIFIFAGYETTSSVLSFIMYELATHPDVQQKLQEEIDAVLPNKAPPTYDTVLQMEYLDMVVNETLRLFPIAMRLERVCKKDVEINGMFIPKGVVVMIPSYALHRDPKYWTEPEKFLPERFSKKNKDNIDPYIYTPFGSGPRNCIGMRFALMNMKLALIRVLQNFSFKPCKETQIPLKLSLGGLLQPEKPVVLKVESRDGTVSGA

One may read the EC50 as the concentration that produces a half-maximal response. As a reminder, the EC90 is the point of the concentration-response curve where the effect stands at 90%. What is called IC50 is the concentration at which inhibition is half-maximal. High values mean a need for much substance, low ones inhibition by little substance. For the compound `COc1cnc(N2CCn3c(C)cc4c(-c5ccc(C)cc5)c([C@H](OC(C)(C)C)C(=O)O)c(C)c2c43)nc1` [Compound I-189], the EC50 with HIV (HTLV-IIIB strain) was 1.6 nM; in data set [1] it was 3.1 nM. Moreover, the EC90 in the data set with HIV (HTLV-IIIB strain) was found to be 3.2 nM. Also, on CYP3A4, the “CYP3A4 (MDZ) MBI, shifted IC” value is “(−) (When a shifted IC was 1.0 or less, this was defined as negative)”. For the same compound, the IC50 against CYP2C9 is > 20000 nM. Further, the Potency shift value in the data set on HIV was 22. In data set [2], the “Photohemolysis test, potential of phototoxicity (PI and met-Hb)” value (“Photohemolysis test, potential” below) was “(−) (negative criteria (−), PI<10% and changes in absorbance at 630 nm<0.05, respectively)”.
As to `Cc1c([C@H](OC(C)(C)C)C(=O)O)c(-c2ccc(Cl)cc2)c2cc(C)n3c2c1N(c1ncc(OCCCN(C)C)cn1)CC3` [Compound I-257], in the data set with HIV (HTLV-IIIB strain), the EC50 was 7.4 nM and the EC90 is 8.1 nM. Further, the EC50 in data set [1] is 28 nM. The “CYP3A4 (MDZ) MBI, shifted IC” value at CYP3A4 is recorded as “(−) (When a shifted IC was 1.0 or less, this was defined as negative)”. At CYP2C9, the half-maximal inhibitory concentration (IC50) is > 20000 nM. Besides, the Potency shift value with HIV was 4. In addition, the “Photohemolysis test, potential” value in data set [2] was “(−) (negative criteria (−), PI<10% and changes in absorbance at 630 nm<0.05, respectively)”.
Consider `[2H]C([2H])([2H])Oc1cnc(N2CCn3c(C)cc4c(-c5ccc(Cl)cc5)c([C@H](OC(C)(C)C)C(=O)O)c(C)c2c43)nc1` [Compound I-260], for which the half-maximal effective concentration (EC50) in the data set with HIV (HTLV-IIIB strain) amounted to 1.1 nM; in data set [1], 3.6 nM. Moreover, the EC90 in the data set with HIV (HTLV-IIIB strain) worked out at 1.5 nM. In addition, the “CYP3A4 (MDZ) MBI, shifted IC” value at CYP3A4 is “(−) (When a shifted IC was 1.0 or less, this was defined as negative)”. Moreover, the IC50 against CYP2C9 is > 20000 nM. For the same compound, in the data set on HIV, the Potency shift value was determined as 15. Also, in data set [2], the “Photohemolysis test, potential” value was “(−) (negative criteria (−), PI<10% and changes in absorbance at 630 nm<0.05, respectively)”.
Regarding `Cc1c([C@H](OC(C)(C)C)C(=O)O)c(-c2ccc(Cl)cc2)c2cc(C)n3c2c1N(c1ncc(OCCN(C)C)cn1)CC3` [Compound I-244], the figures for the EC50 (in the data set on HIV (HTLV-IIIB strain); in data set [1]) were 4.8 nM and 12 nM, respectively. In addition, the EC90 with HIV (HTLV-IIIB strain) worked out at 8 nM. Besides, the “CYP3A4 (MDZ) MBI, shifted IC” value at CYP3A4 is reported as “(−) (When a shifted IC was 1.0 or less, this was defined as negative)”. Besides, the IC50 at CYP2C9 is > 20000 nM. For the same compound, in the data set with HIV, the Potency shift value is reported as 3.4. Also, the “Photohemolysis test, potential” value in data set [2] is “(−) (negative criteria (−), PI<10% and changes in absorbance at 630 nm<0.05, respectively)”.
For the compound `COc1cnc(N2CCn3c(C)cc4c(-c5ccc(Cl)cc5)c([C@H](OC(C)(C)C)C(=O)O)c(C)c2c43)nc1` [Compound I-156], in the data set with HIV (HTLV-IIIB strain), the EC50 turned out to be 0.85 nM and the 90% effect concentration (EC90) worked out at 1.2 nM. Also, in data set [1], the EC50 came to 3.6 nM. At CYP3A4, the “CYP3A4 (MDZ) MBI, shifted IC” value is “(−) (When a shifted IC was 1.0 or less, this was defined as negative)”. In addition, the IC50 against CYP2C9 was > 20000 nM. Also, the Potency shift value with HIV was determined as 12. Besides, the “Photohemolysis test, potential” value in data set [2] was “(−) (negative criteria (−), PI<10% and changes in absorbance at 630 nm<0.05, respectively)”.
`Cc1ccc(-c2c([C@H](OC(C)(C)C)C(=O)O)c(C)c3c4c2cc(C)n4CCN3c2ncc(OC3CCN(C)CC3)cn2)cc1` [Compound I-278]: in the data set with HIV (HTLV-IIIB strain), the EC50 turned out to be 5.5 nM and the EC90 came to 11 nM. The concentration giving a half-maximal response (EC50) in data set [1] is 13 nM. For the same compound, the “CYP3A4 (MDZ) MBI, shifted IC” value on CYP3A4 was “(−) (When a shifted IC was 1.0 or less, this was defined as negative)”. The IC50 against CYP2C9 is > 20000 nM. In addition, in the data set on HIV, the Potency shift value was determined as 3.6. In data set [2], the “Photohemolysis test, potential” value was “(−) (negative criteria (−), PI<10% and changes in absorbance at 630 nm<0.05, respectively)”.
Regarding `Cc1c([C@H](OC(C)(C)C)C(=O)O)c(-c2ccc(Cl)cc2)c2cc(C)n3c2c1N(c1ncc(OCC2COC2)cn1)CC3` [Compound I-258], in the data set with HIV (HTLV-IIIB strain), the EC50 was determined as 2.1 nM and the EC90 was found to be 2.9 nM. In data set [1], the EC50 turned out to be 4.9 nM. In addition, at CYP3A4, the “CYP3A4 (MDZ) MBI, shifted IC” value is “(−) (When a shifted IC was 1.0 or less, this was defined as negative)”. Moreover, the IC50 on CYP2C9 is > 20000 nM. Besides, the Potency shift value in the data set on HIV is reported as 11. In data set [2], the “Photohemolysis test, potential” value was “(−) (negative criteria (−), PI<10% and changes in absorbance at 630 nm<0.05, respectively)”.

Source of the values: patent US10494380B2, “Nitrogen-containing tricyclic derivatives having HIV replication inhibitory activity” (priority 2015, dated 2019).
